Counter-ions that a name gives are not always drawn.

The target of one series is T1, TNKS-1 (Homo sapiens, UniProt O95271).
T1 construct: purchased BPS Bioscience 80582
T1 sequence (O95271 1-1327): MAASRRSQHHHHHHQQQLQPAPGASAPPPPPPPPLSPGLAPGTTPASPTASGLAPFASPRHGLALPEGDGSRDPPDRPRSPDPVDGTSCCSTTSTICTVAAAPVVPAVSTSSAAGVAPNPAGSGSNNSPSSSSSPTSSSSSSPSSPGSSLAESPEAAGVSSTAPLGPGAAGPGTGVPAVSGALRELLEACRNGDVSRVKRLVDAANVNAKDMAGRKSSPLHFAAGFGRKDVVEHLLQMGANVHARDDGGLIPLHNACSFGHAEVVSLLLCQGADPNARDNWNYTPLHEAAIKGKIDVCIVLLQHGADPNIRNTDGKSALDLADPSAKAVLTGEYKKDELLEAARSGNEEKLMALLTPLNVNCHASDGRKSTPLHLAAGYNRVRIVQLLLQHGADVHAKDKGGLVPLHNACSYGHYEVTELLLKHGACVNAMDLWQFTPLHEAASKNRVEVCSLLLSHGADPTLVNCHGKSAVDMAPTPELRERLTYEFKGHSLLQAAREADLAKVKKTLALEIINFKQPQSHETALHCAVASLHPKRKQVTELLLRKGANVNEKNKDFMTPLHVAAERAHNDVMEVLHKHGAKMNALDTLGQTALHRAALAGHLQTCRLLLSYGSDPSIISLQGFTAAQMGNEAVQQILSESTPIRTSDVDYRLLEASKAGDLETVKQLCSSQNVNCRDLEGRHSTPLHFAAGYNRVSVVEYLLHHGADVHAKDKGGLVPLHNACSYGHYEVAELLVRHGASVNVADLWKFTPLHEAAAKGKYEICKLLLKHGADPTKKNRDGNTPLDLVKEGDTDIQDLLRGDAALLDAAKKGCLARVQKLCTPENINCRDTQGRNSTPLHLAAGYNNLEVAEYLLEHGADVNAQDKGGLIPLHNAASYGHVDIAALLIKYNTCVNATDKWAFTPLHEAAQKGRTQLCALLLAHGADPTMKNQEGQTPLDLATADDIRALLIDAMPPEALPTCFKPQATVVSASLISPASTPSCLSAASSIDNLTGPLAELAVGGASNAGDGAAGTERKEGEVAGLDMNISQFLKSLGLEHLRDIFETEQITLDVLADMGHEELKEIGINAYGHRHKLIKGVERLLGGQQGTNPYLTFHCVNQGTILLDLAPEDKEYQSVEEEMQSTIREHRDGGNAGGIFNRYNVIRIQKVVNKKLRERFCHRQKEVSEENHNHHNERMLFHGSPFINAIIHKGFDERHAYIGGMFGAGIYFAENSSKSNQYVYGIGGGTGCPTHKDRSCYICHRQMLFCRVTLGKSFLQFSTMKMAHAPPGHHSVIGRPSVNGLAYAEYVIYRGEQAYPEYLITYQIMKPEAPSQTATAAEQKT
Briefly: TNKS1 Histone Ribosylation Colorimetric Assay Kit (tankyrase-1 colorimetric activity assay). As to conditions: for inhibition at 10 µM: read-out: TNKS-1 inhibitory activity (10 μM), 10 μM compound. The series is classed as biochemical.

The target of a further series is T2, TNKS-2 (Homo sapiens, UniProt Q9H2K2).
T2 sequence (Q9H2K2 1-1166): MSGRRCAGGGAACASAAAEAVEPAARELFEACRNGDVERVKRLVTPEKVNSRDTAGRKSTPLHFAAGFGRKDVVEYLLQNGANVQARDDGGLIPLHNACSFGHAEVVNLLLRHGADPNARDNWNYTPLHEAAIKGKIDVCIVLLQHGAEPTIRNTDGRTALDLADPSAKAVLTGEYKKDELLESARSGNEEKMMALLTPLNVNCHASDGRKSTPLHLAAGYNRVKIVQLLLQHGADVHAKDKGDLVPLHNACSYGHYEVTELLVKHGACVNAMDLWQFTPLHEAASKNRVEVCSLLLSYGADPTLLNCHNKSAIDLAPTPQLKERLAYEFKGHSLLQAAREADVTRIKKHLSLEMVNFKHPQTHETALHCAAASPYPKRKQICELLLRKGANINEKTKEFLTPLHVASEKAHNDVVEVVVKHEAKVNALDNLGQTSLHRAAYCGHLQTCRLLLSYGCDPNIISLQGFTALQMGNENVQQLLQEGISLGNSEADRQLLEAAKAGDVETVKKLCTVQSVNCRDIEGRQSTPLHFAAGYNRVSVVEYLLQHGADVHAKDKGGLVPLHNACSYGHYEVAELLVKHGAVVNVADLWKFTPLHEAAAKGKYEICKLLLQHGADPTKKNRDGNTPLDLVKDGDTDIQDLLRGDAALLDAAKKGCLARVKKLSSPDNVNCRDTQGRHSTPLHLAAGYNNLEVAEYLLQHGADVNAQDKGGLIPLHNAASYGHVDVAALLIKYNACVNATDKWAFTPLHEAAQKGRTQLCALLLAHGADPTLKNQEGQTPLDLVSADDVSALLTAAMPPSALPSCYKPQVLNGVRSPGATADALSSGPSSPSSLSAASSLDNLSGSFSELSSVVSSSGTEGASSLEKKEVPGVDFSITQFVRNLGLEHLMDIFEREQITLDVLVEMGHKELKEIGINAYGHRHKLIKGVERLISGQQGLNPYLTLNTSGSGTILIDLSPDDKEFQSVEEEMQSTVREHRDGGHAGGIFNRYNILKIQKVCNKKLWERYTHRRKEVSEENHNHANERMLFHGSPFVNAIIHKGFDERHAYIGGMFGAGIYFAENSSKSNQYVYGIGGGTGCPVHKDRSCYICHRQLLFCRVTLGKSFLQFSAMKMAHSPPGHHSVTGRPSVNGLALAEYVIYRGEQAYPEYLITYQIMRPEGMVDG
Put plainly: TNKS-2 enzymatic activity inhibition. The format is biochemical.

Another series addresses T3, PARP-1 (Homo sapiens, UniProt P09874).
T3 construct: purchased BPS Bioscience 80580
Briefly: PARP-1 colorimetric activity assay kit. The series is classed as biochemical.

Another series addresses PARP-2 (Homo sapiens, UniProt Q9UGN5). Briefly: PARP-2 enzymatic activity inhibition. The format is biochemical.
The test system of series [1] is beta-catenin transcriptional activity. Put plainly: TCF/luciferase assay of beta-catenin transcriptional activity in HEK cells. The format is cell-based. As to conditions: Homo sapiens, HEK293, read-out: β-catenin IC50 in HEK cells. As for the experimental part:
To determine whether beta-catenin transcriptional activity is inhibited by the aryl-piperidine derivative compounds, compounds TI-61815 and TI-61910 were treated at various concentrations and examined in HEK cells using the TCF/luciferase assay system.

Series [2] deals with activated beta-catenin proteins. Briefly: Western blotting of activated beta-catenin protein in colon cancer cell lines. Particulars: COLO320DM and SW403, 10 μM, 24 hours. The series is classed as cell-based, human. From the text: (§1) After protein extraction, proteins were quantified through Western blotting (Bio-Rad, USA).
A further series relates to AXIN2 protein. Briefly: Western blotting of AXIN2 protein in colon cancer cell lines. The format is cell-based, human. Particulars: COLO320DM and SW403, 10 μM, 24 hours.
Text: as §1
Background: In western blotting, separated proteins are transferred to a membrane and probed.

Series [3] relates to beta-catenin subgenes (AXIN2, CCND1, cMYC, FGF20). Briefly: Real-time PCR of beta-catenin subgene expression. The format is cell-based, human. As to conditions: COLO320DM, 10 μM, 24 hours. The source says: After RNA extraction, cDNA was synthesized to quantify gene expression via real-time PCR.
In series [4] the test system is colon cancer cell line COLO320DM. Put plainly: Cell viability by colony counting after co-treatment with 5-FU. The format is cell-based. As to conditions: Homo sapiens, COLO 320DM, 240 h, 10 days, read-out: cell viability inhibited when co-treated with 5-FU, compared to the sole treatment. As for the experimental part: Each cell line was purchased from the American Type Culture Collection (ATCC) and cultured respectively in RPMI 1640 (Roswell Park Memorial Institute 1640) medium supplemented with 10% fetal bovine serum (FBS), 100 μg/ml streptomycin, and 100 units/ml penicillin in the presence of 5% CO2 at 37° C.
Afterwards, the cell viability was identified by counting the number of colonies by staining with 1.5% methylene blue.

For series [5] the test system is unchanged. Put plainly: Cell viability by colony counting (methylene blue staining). As to conditions: 10 days.

T3 sequence (P09874 whole entry): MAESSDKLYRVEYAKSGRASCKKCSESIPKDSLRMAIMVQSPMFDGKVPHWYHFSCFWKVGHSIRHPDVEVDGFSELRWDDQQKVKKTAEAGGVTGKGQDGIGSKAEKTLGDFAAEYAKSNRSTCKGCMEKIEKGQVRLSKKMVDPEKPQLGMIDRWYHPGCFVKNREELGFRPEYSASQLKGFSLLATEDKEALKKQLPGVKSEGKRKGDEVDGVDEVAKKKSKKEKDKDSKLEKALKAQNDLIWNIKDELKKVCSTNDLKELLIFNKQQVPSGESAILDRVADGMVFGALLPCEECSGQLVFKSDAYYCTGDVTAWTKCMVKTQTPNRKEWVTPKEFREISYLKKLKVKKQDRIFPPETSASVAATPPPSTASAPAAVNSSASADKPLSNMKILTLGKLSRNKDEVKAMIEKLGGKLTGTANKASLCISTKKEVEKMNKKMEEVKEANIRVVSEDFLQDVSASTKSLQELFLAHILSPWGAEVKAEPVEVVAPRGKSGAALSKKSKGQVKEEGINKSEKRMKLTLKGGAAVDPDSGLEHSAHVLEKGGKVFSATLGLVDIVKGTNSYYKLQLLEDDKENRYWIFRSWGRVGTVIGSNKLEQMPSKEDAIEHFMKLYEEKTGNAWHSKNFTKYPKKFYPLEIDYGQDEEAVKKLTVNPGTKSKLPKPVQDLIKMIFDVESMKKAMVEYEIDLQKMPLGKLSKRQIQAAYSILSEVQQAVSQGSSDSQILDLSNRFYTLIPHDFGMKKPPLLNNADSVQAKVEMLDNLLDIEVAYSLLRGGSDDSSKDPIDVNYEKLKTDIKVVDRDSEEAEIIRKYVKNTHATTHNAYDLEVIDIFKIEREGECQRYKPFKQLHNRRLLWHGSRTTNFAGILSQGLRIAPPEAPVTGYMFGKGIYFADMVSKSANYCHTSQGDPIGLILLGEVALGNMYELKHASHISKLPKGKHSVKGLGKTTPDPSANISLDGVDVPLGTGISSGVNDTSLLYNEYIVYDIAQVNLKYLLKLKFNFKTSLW
Sequence of PARP-2 (Q9UGN5 whole entry): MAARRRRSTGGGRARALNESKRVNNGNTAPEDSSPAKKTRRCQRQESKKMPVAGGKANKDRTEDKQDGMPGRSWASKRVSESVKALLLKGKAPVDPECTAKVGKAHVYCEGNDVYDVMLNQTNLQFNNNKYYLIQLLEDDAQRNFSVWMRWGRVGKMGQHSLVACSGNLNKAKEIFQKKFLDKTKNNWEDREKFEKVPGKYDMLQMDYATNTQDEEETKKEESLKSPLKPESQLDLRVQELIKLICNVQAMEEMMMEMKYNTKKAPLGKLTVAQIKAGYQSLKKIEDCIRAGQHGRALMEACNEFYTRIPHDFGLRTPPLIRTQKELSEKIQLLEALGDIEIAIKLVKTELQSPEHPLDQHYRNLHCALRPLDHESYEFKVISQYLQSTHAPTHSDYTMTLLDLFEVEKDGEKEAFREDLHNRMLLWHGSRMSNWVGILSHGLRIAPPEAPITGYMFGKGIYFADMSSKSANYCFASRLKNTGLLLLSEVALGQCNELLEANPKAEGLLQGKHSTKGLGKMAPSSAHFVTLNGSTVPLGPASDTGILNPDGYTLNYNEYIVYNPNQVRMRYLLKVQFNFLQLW

In general, IC50 refers to the concentration that gives 50% inhibition. In the case of `N#Cc1ccccc1N1CCC(CCC(=O)Nc2nnc3ccccn23)CC1` [TI-61910, N-([1,2,4]triazolo[4,3-a]pyridin-3-yl)-3-(1-(2-cyanophenyl)piperidin-4-yl)propanamide], the IC50 is 18 nM against TNKS-1; 4 nM against TNKS-2; over 10000 nM against PARP-1; over 10000 nM on PARP-2; 490 nM in [1]. Moreover, the inhibition at 10 µM on TNKS-1 is at least 95%. Also, the “inhibition of enzymatic activity of PARP-1 (in words)” value against PARP-1 (1 μM) was “almost no decrease in the inhibition of enzymatic activity of PARP-1”. In series [2], the “levels of the activated beta-catenin proteins” value was “inhibited levels of the activated beta-catenin proteins”. The AXIN2 protein levels result in the series with AXIN2 protein is “stabilization of AXIN2 protein levels”. For the same compound, the “expression levels of beta-catenin subgenes (AXIN2, CCND1, cMYC, FGF20)” value in [3] is “inhibited the expression levels of beta-catenin subgenes”. In series [4] (2.5 μM compound + 0.5 μM 5-FU), the cytotoxicity at 2.5 µM worked out at 26%. In [4] (5 μM compound + 0.5 μM 5-FU), the cytotoxicity at 5 µM is 28.3%. Also, the cytotoxicity at 10 µM in series [4] (10 μM compound + 0.5 μM 5-FU) worked out at 35.5%. The “cell viability (in words)” value in [5] (2.5 μM to 40 μM) is “decreased in a concentration-dependent manner”. The compound further had a cell viability inhibited in series [5] (40 μM) of 60.8%.

On to `CN(CC(=O)Nc1nnc2ccccn12)C1CCN(c2ccccc2C#N)CC1` [TI-62199, N-([1,2,4]triazolo[4,3-a]pyridin-3-yl)-2-((1-(2-cyanophenyl)piperidin-4-yl)(methyl)amino)acetamide], for which, on TNKS-1, the inhibition at 10 µM was determined as 98 ± 0.1%.

Turning to `O=C(CCC1CCN(c2cccc([N+](=O)[O-])c2)CC1)Nc1nnc2ccccn12` [TI-62189], the inhibition at 10 µM at TNKS-1 was 100%.

As to `N#Cc1ccccc1N1CCC(CC(=O)Nc2cnc3cccnn23)CC1` [TI-61816, 2-(1-(2-cyanophenyl)piperidin-4-yl)-N-(imidazo[1,2-b]pyridazin-3-yl)acetamide], the inhibition at 10 µM on TNKS-1 turned out to be 5 ± 1.2%.

On to `CC(C)(C)OC(=O)N(CC(=O)Nc1nnc2ccccn12)C1CCN(c2ccccc2C#N)CC1` [TI-62197, tert-Butyl(2-([1,2,4]triazolo[4,3-a]pyridin-3-ylamino)-2-oxoethyl)(1-(2-cyanophenyl)piperidin-4-yl) carbamate], for which the inhibition at 10 µM at TNKS-1 worked out at 3 ± 0.9%.

Turning to `O=C(CCC1CCN(c2ccc([N+](=O)[O-])cc2[N+](=O)[O-])CC1)Nc1nnc2ccccn12` [TI-62195], the inhibition at 10 µM on TNKS-1 was at least 95%.

`N#Cc1ccc(N2CCC(CCC(=O)Nc3nnc4ccccn34)CC2)cc1` [TI-62194]: the inhibition at 10 µM at TNKS-1 was found to be 100%.

Consider `N#Cc1ccccc1N1CCC(CCC(=O)Nc2cccc3[nH]ccc23)CC1` [TI-62126], for which the inhibition at 10 µM on TNKS-1 worked out at 1 ± 1.7%.

Turning to `N#Cc1ccccc1N1CCC(CCC(=O)Nc2cnc3cccnn23)CC1` [TI-62121, 3-(1-(2-cyanophenyl)piperidin-4-yl)-N-(imidazo[1,2-b]pyridazin-3-yl)propanamide], the inhibition at 10 µM at TNKS-1 was 17 ± 1.5%.

As for `O=C(CCC1CCN(c2ccccc2[N+](=O)[O-])CC1)Nc1nnc2ccccn12` [TI-62188, N-([1,2,4]triazolo[4,3-a]pyridin-3-yl)-3-(1-(2-nitrophenyl)piperidin-4-yl)propanamide], the inhibition at 10 µM on TNKS-1 is at least 95%.

Turning to `N#Cc1ccccc1N1CCC(NCC(=O)Nc2nnc3ccccn23)CC1` [TI-62198, N-([1,2,4]triazolo[4,3-a]pyridin-3-yl)-2-((1-(2-cyanophenyl)piperidin-4-yl)amino)acetamide trifluoroacetic acid salt], the inhibition at 10 µM on TNKS-1 came out at 72 ± 0.3%.

On to `N#Cc1ccccc1N1CCC(CCCC(=O)Nc2nnc3ccccn23)CC1` [TI-62116, N-([1,2,4]triazolo[4,3-a]pyridin-3-yl)-4-(1-(2-cyanophenyl)piperidin-4-yl)butanamide], for which the inhibition at 10 µM on TNKS-1 was found to be 99 ± 0.1%.

For the compound `N#Cc1ccccc1N1CCC(CCC(=O)Nc2cnc3ccccn23)CC1` [TI-62122, 3-(1-(2-cyanophenyl)piperidin-4-yl)-N-(imidazo[1,2-a]pyridin-3-yl)propanamid], the inhibition at 10 µM at TNKS-1 turned out to be 10 ± 0.9%.

For the compound `O=C(CCC1CCN(c2ccc([N+](=O)[O-])cc2)CC1)Nc1nnc2ccccn12` [TI-62190], the inhibition at 10 µM at TNKS-1 came to 96 ± 0.2%.

The record behind these values is US20260242336A1, “COMPOSITION FOR PREVENTING OR TREATING CANCER DISEASES COMPRISING ARYL-PIPERIDINE DERIVATIVE” (KOREA RESEARCH INSTITUTE OF CHEMICAL TECHNOLOGY, priority 2023, published 2026).
